In PubChem BioAssay AID651855 (NMMLSC, 2012):
pEC50: −log10 of the molar value. The source made the active and inactive calls.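 The calls were made as follows: active = compounds whose fitted concentration for half loss of dye binding is under 10 µM; inactive = the rest.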

Tested on: FAP-tagged hCCR5 cells, MG2p fluorogen binding, flow cytometry
Assay: interference with FAP-CCR5 fluorogen signal, dose response, counter-screen for beta2AR agonist project, cell-based, FAP-tagged human CCR5, Powderset3 (AID 651855)
Conditions: not given

Structure (SMILES)	pEC50
CC(Sc1nc(-c2ccccc2)cc(C(F)(F)F)n1)C(=O)N1CCOCC1 (configuration not stated)	7.57
CC(C)Cc1nc2sc3c(NCc4ccco4)ncnc3c2c2c1COC(C)(C)C2	7.40
Cc1ncc(CN2CCCC(C(=O)Nc3ccc(-c4cccc(F)c4)cc3)C2)s1 (configuration not stated)	5.91
Clc1ccc(OCc2nnc(SCc3nc4ccccc4[nH]3)n2Cc2ccco2)cc1	8.00
CSc1nc(SCCO)c2sc3nc(-c4ccco4)c4c(c3c2n1)CC(C)(C)OC4	5.73
C=CCn1c(CCNC(=O)c2cccs2)nnc1SCC(=O)c1ccc(Br)cc1	7.76
COc1ccc(OC)c(CCNC(=O)C2CCN(c3nnc(-n4cccc4)s3)CC2)c1	6.04
CC(=O)Nc1ccc(S(=O)(=O)N2CCC(Oc3ccc(-n4cnnn4)cc3)CC2)cc1	7.22
CC(Sc1nc(-c2ccccc2)cc(C(F)(F)F)n1)C(=O)N1CCCCC1 (configuration not stated)	7.59
Cc1ccccc1N1CCN(c2ncnc3c2cnn3Cc2ccc(Cl)cc2)CC1	5.36
CC(Oc1ccc(Cl)cc1Cl)c1nc(-c2ccc(NC(=O)c3ccccn3)cc2)no1 (configuration not stated)	6.37
CN(Cc1ccccc1)S(=O)(=O)c1ccc(NS(=O)(=O)Cc2ccccc2)cc1	6.97
CC1(C)Cc2c(c(N3CCCC3)nc3sc4c(N5CCN(CCO)CC5)ncnc4c23)CO1	5.53
C=CCn1c(CCNC(=O)c2cccs2)nnc1SCC(=O)c1cccc([N+](=O)[O-])c1	8.62
Cn1c(N2CCN(c3ccccn3)CC2)nc2c1c(=O)n(Cc1ccc(Cl)cc1)c(=O)n2C	7.68
Cc1ccc(Cn2ccc(NC(=O)c3cc4nc(-c5ccco5)cc(C(F)(F)F)n4n3)n2)cc1	8.05
Cc1ccc(OCc2cc(C(=O)N(C)Cc3cnn(-c4ccccc4C)c3)no2)cn1	6.96
Clc1cccc(-c2nnc(SCc3nc4ccccc4[nH]3)n2Cc2ccco2)c1	4.98
C=CCn1c(CCNC(=O)c2cccs2)nnc1SCC(=O)c1ccc(Cl)cc1	8.15

Tested on: not listed separately
Assay: as above
Conditions: FAP-tagged hCCR5 cells, MG2p fluorogen binding, flow cytometry; hits give high values

Structure (SMILES)	percent span
CC(C)CNc1ncnc2c1sc1nc(N3CCOCC3)c3c(c12)CC(C)(C)OC3	-9.78% (inactive)
O=C(NC1CCc2ccccc21)c1cc(COc2cncc(Cl)c2)on1 (configuration not stated)	4.03% (inactive)
c1ccc(-c2nnc(SCc3nc4ccccc4[nH]3)n2Cc2ccco2)cc1	15.8% (inactive)
CC1(C)Cc2c(c(N3CCOCC3)nc3sc4c(NCCN)ncnc4c23)CO1	116% (inactive)
Cc1ccc(-c2nc3ncccc3o2)cc1NC(=O)c1sc2ccccc2c1Cl	35.8% (inactive)
Cc1ccc(NC(=O)C(c2ccc(Cl)cc2)N2CCOCC2)cc1 (configuration not stated)	49.5% (inactive)
CCCCN(C(=O)c1ccc(NC(=O)C(C)C)cc1)c1ccccc1	31.9% (inactive)
COCc1ccc(CN2CCCC(C(=O)Nc3ccc(-c4cccc(OC)c4)cc3)C2)o1 (configuration not stated)	41.6% (inactive)
COC(=O)c1ccc(CNC(=O)c2cc(COc3cncc(Cl)c3)on2)cc1	28.2% (inactive)
O=C(c1cc2c(=O)n3ccccc3nc2s1)N1CCN(Cc2ccc3c(c2)OCO3)CC1	39.7% (inactive)
Cc1ccc(OCc2nnc(SCc3nc4ccccc4[nH]3)n2Cc2ccco2)cc1	61.9% (inactive)
CCC(NC(=O)c1cc(COc2ccc(C)nc2)on1)c1ccc(C)cc1 (configuration not stated)	53.2% (inactive)
CC(Oc1ccc(Cl)cc1Cl)c1nc(-c2ccc(NC(=O)c3ccco3)cc2)no1 (configuration not stated)	42.1% (inactive)
